This is an account of results in ChEMBL document CHEMBL1136476, “Catechol-substituted L-chicoric acid analogues as HIV integrase inhibitors” (Bioorg Med Chem Lett, 2003).

Some results are limits rather than exact numbers.

The target in this assay is Human immunodeficiency virus type 1 integrase (Human immunodeficiency virus 1, UniProt Q7ZJM1). Put plainly: Inhibitory activity against HIV-1 integrase.
Sequence of Human immunodeficiency virus type 1 integrase (Q7ZJM1 whole entry): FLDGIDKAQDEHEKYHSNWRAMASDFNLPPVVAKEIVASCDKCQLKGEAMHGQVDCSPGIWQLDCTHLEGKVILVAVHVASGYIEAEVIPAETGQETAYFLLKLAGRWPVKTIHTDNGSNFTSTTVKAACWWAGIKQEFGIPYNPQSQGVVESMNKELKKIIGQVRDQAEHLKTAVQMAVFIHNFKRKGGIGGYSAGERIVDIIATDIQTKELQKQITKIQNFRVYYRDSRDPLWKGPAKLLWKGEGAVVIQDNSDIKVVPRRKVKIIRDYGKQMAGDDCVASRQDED
The term IC50 denotes the midpoint of a concentration-inhibition curve. High values mean lower potency, low ones higher potency. `O=C(O)C(Cc1ccc(O)c(O)c1)C(Cc1ccc(O)c(O)c1)C(=O)O` (stereo not given) returned an IC50 of 19.1 µM.

Take `COc1ccc(CC(C(=O)O)C(Cc2ccc(OC)c(OC)c2)C(=O)O)cc1OC` (stereo not given): the IC50 is above 150 µM.

In turn, `O=C1NC(=O)C(c2ccc(O)c(O)c2)=C1c1ccc(O)c(O)c1` gave an IC50 of 15.5 µM.

`COc1ccc(C2=C(c3ccc(OC)c(OC)c3)C(=O)NC2=O)cc1OC` registered a 50% inhibitory concentration (IC50) above 150 µM.

The compound `O=C1OC(=O)C(c2ccc(O)c(O)c2)=C1c1ccc(O)c(O)c1` gave an IC50 of 3.8 µM.

The compound `COc1ccc(C(C(=O)O)C(C(=O)O)c2ccc(OC)c(OC)c2)cc1OC` (stereo not given) yielded a half-inhibitory concentration (IC50) above 150 µM.

As for `O=C(O)c1[nH]c(C(=O)O)c(-c2ccc(O)c(O)c2)c1-c1ccc(O)c(O)c1`, the IC50 amounted to 5.3 µM. That is a single-digit micromolar value.

Compound `COc1ccc(C2=C(c3ccc(OC)c(OC)c3)C(=O)OC2=O)cc1OC` showed a 50% inhibitory concentration (IC50) above 150 µM.

`COc1ccc(-c2c(C(=O)O)[nH]c(C(=O)O)c2-c2ccc(OC)c(OC)c2)cc1OC`: the 50% inhibitory concentration (IC50) is above 150 µM.

Take `O=C(O)C(c1ccc(O)c(O)c1)C(C(=O)O)c1ccc(O)c(O)c1` (stereo not given): the IC50 worked out at 23.6 µM.
